The values below come from patent US11427553B2, “Dihydrooxadiazinones” (Bayer Aktiengesellschaft, priority 2017, dated 2022).

In one experiment the test system is HeLa cells. Put plainly: Assay 1 cell proliferation measurement (CTG, 72 h), HeLa. Type of experiment: cell-based, human. The note with it: Homo sapiens, HeLa; Assay 1, 72 h, Cell Titer Glo; read-out: HeLa IC50 [nM] (Cervical cancer). Summed up:
(§1)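 Seed cells, incubate overnight at 37 °C; measure baseline viability (CTG, 0 h plate); dose compound in a 10-step 2.5-fold series (max generally 100 nM final, DMSO 0.3%) for 72 h; read CTG luminescence; fit IC50 with 4 parameters.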

In a further experiment the test system is SK-MEL-3 cells. In words: Assay 1 cell proliferation measurement (CTG, 72 h), SK-MEL-3. The format is cell-based, human. Conditions: Homo sapiens, SK-MEL3; Assay 1, 72 h, Cell Titer Glo; read-out: SK-MEL-3 IC50 [nM] (melanoma). In outline: as §1
For the next experiment, the target named is human full length PDE3A (Homo sapiens (Human), UniProt Q14432). Put plainly: Assay 4 PDE3A enzyme inhibition (3H-cAMP SPA). Type of experiment: biochemical. The note with it: Sf9 cell extract. In outline: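 Hydrolysis of [8-3H]cAMP by Sf9-expressed full-length PDE3A was measured by scintillation proximity, with enzyme diluted to keep kinetics linear and substrate consumption below 70%. Incubation ran 60 min at room temperature at pH 7.5.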

The target of a further experiment is human full length PDE3B (Homo sapiens (Human), UniProt Q13370). Put plainly: Assay 5 PDE3B enzyme inhibition (3H-cAMP SPA). The format is biochemical. The note with it: Sf9 cell extract. In outline:
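Sf9 cell extract expressing human full-length PDE3B, diluted for linear kinetics (<70% substrate use), in 50 mM Tris/HCl pH 7.5, 8.3 mM MgCl2, 1.7 mM EDTA. [8-3H]cAMP substrate, 60 min at room temperature; stopped with yttrium SPA beads, scintillation counting. IC50 from sigmoidal activity vs log concentration curves.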

Sequence of human full length PDE3B (Q13370 whole entry): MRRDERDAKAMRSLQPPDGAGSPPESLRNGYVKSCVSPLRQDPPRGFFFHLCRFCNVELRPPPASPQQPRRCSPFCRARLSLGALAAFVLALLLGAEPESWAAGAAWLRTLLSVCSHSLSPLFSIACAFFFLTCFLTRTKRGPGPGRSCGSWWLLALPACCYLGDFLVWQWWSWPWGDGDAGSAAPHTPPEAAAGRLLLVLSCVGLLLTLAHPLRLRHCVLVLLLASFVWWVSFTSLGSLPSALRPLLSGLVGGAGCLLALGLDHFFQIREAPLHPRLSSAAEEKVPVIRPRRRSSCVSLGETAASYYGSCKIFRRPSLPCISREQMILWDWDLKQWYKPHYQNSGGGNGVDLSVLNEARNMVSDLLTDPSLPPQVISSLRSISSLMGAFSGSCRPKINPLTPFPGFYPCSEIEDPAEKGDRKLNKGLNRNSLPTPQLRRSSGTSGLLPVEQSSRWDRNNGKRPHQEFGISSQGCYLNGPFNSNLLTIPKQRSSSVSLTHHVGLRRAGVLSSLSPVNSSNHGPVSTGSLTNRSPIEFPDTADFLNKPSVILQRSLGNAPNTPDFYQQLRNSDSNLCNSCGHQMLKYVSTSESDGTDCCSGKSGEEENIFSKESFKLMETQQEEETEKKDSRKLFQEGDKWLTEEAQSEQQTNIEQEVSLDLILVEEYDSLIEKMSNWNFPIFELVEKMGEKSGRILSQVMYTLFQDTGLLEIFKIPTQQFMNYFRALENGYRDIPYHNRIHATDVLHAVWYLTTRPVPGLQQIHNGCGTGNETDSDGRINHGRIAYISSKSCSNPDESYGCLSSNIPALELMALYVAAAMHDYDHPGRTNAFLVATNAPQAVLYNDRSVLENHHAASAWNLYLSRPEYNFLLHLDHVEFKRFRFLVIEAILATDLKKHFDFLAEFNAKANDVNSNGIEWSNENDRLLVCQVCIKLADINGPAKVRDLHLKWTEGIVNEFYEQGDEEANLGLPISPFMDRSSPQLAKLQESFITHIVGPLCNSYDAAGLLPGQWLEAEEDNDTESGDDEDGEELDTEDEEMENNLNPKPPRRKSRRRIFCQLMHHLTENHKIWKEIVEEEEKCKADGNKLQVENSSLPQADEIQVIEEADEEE
Sequence of human full length PDE3A (Q14432 whole entry): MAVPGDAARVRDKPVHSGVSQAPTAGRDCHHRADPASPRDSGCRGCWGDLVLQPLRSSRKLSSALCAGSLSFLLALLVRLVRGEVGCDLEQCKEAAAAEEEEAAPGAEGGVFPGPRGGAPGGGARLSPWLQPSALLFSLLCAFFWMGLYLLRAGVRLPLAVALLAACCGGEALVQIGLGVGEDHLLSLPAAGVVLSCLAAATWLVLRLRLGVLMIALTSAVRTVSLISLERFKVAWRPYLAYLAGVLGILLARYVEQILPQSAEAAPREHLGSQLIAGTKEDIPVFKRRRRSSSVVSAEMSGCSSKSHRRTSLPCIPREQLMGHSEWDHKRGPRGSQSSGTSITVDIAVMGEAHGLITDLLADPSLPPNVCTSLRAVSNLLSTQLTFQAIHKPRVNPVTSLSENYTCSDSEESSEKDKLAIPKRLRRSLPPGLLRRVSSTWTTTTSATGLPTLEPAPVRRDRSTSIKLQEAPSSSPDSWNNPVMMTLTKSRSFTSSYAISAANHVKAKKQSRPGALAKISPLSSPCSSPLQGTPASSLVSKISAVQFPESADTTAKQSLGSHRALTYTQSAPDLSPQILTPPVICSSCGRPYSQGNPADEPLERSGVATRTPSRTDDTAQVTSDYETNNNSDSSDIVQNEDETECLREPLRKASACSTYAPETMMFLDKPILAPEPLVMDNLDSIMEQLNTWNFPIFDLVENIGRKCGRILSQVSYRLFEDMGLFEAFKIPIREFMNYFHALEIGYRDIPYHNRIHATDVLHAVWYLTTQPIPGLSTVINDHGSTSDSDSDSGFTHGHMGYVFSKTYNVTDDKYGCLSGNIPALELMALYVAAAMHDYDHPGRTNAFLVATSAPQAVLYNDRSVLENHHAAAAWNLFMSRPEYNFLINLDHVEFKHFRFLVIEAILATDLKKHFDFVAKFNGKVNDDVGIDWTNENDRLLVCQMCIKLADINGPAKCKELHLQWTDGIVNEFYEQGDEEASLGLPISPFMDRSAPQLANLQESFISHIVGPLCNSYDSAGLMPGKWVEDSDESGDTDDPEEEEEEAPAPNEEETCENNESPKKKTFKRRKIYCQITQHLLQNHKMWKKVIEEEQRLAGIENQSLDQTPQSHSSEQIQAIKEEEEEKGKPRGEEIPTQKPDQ

The IC50 is the concentration at which inhibition is half-maximal. As for `C[C@@H]1OC(=O)NN=C1c1ccc(-c2cccc(N)c2)c(C(F)(F)F)c1` [Example 176, (6S)-5-[3′-Amino-2-(trifluoromethyl)[1,1′-biphenyl]-4-yl]-6-methyl-3,6-dihydro-2H-1,3,4-oxadiazin-2-one], the IC50 in the experiment with HeLa cells worked out at 2 nM; in the experiment with SK-MEL-3 cells, 4 nM; on human full length PDE3A, 37 nM; at human full length PDE3B, 35 nM.

As for `O=C1NN=C(c2ccc(C3=CCNCC3)c(C(F)(F)F)c2)CO1` [Example 328, 5-[4-(1,2,3,6-tetrahydropyridin-4-yl)-3-(trifluoromethyl)phenyl]-3,6-dihydro-2H-1,3,4-oxadiazin-2-one], the IC50 in the experiment with HeLa cells was 47 nM; in the experiment with SK-MEL-3 cells it was greater than 100 nM; at human full length PDE3A, 74 nM; on human full length PDE3B, 91 nM.

`Nc1cc(-c2ccc(C3=NNC(=O)OC3)cc2C(F)(F)F)ccc1Cl` [Example 41, 5-[3′-Amino-4′-chloro-2-(trifluoromethyl)biphenyl-4-yl]-3,6-dihydro-2H-1,3,4-oxadiazin-2-one]: the half-inhibitory concentration (IC50) was found to be 10 nM in the experiment with HeLa cells, 21 nM in the experiment with SK-MEL-3 cells, 31 nM against human full length PDE3A and 31 nM on human full length PDE3B.

Regarding `O=C1NN=C(c2ccc(N3CCC(F)(F)C3)c(F)c2)CO1` [Example 26, 5-[4-(3,3-Difluoropyrrolidin-1-yl)-3-fluorophenyl]-3,6-dihydro-2H-1,3,4-oxadiazin-2-one], the half-inhibitory concentration (IC50) in the experiment on HeLa cells is 9 nM; with SK-MEL-3 cells it was 29 nM; against human full length PDE3A, 700 nM; against human full length PDE3B, 270 nM.

As for `CC(C)(N)CNc1ccc(C2=NNC(=O)OC2)cc1C(F)(F)F` [Example 321, 5-{4-[(2-amino-2-methylpropyl)amino]-3-(trifluoromethyl)phenyl}-3,6-dihydro-2H-1,3,4-oxadiazin-2-one], the half-inhibitory concentration (IC50) in the experiment on HeLa cells was greater than 100 nM; with SK-MEL-3 cells it was 54 nM; against human full length PDE3A, 290 nM; at human full length PDE3B, 500 nM.

As for `CCn1cnc(-c2ccc(C3=NNC(=O)OC3)cc2C(F)(F)F)c1` [Example 151, 5-[4-(1-Ethyl-1H-imidazol-4-yl)-3-(trifluoromethyl)phenyl]-3,6-dihydro-2H-1,3,4-oxadiazin-2-one], the IC50 in the experiment on HeLa cells stood at 5 nM; in the experiment with SK-MEL-3 cells it was 5 nM; on human full length PDE3A, 69 nM; against human full length PDE3B, 159 nM.

As for `COc1ccccc1-c1ccc(C2=NNC(=O)OC2)cc1F` [Example 116, 5-(2-Fluoro-2′-methoxy[1,1′-biphenyl]-4-yl)-3,6-dihydro-2H-1,3,4-oxadiazin-2-one], the IC50 in the experiment with HeLa cells came to 16 nM; in the experiment with SK-MEL-3 cells it was 35 nM; at human full length PDE3A, 79 nM; against human full length PDE3B, 76 nM.

Consider `Cc1ncccc1-c1ccc(C2=NNC(=O)OC2)cc1F` [Example 96, 5-[3-Fluoro-4-(2-methylpyridin-3-yl)phenyl]-3,6-dihydro-2H-1,3,4-oxadiazin-2-one], for which the IC50 in the experiment with HeLa cells is 18 nM; in the experiment on SK-MEL-3 cells, 40 nM; against human full length PDE3A, 50 nM; at human full length PDE3B, 110 nM.

Take `O=C1NN=C(c2ccc(C3=CCC(O)CC3)c(C(F)(F)F)c2)CO1` (racemic) [Example 141, (rac)-5-[4′-Hydroxy-2-(trifluoromethyl)-2′,3′,4′,5′-tetrahydro[1,1′-biphenyl]-4-yl]-3,6-dihydro-2H-1,3,4-oxadiazin-2-one]: the IC50 in the experiment on HeLa cells came to 2 nM; in the experiment with SK-MEL-3 cells it was 3 nM; at human full length PDE3A it was 13 nM; against human full length PDE3B it was 27 nM.

Take `Cn1ncc2ccc(-c3ccc(C4=NNC(=O)OC4)cc3C(F)(F)F)cc21` [Example 75, 5-[4-(1-Methyl-1H-indazol-6-yl)-3-(trifluoromethyl)phenyl]-3,6-dihydro-2H-1,3,4-oxadiazin-2-one]: the IC50 came out at 22 nM with HeLa cells, 44 nM in the experiment on SK-MEL-3 cells, 31 nM against human full length PDE3A and 78 nM against human full length PDE3B.

For `Cc1ccc(-c2ccc(C3=NNC(=O)OC3)cc2C(F)(F)F)nc1` [Example 157, 5-[4-(5-Methylpyridin-2-yl)-3-(trifluoromethyl)phenyl]-3,6-dihydro-2H-1,3,4-oxadiazin-2-one], the IC50 in the experiment on HeLa cells was 44 nM; in the experiment on SK-MEL-3 cells, 71 nM; against human full length PDE3A it was greater than 1000 nM; against human full length PDE3B, greater than 1000 nM.

As to `O=C1NN=C(c2ccc(NC[C@H]3CCCO3)c(C(F)(F)F)c2)CO1` [Example 225, 5-[4-({[(2R)-Oxolan-2-yl]methyl}amino)-3-(trifluoromethyl)phenyl]-3,6-dihydro-2H-1,3,4-oxadiazin-2-one], the IC50 with HeLa cells came out at 3 nM; with SK-MEL-3 cells, 5 nM; against human full length PDE3A, 45 nM; at human full length PDE3B it was 220 nM.

Regarding `C[C@H](O)CNc1ccc(C2=NNC(=O)OC2)cc1C(F)(F)F` [Example 218, 5-[4-{[(2S)-2-Hydroxypropyl]amino}-3-(trifluoromethyl)phenyl]-3,6-dihydro-2H-1,3,4-oxadiazin-2-one], the IC50 in the experiment with HeLa cells is 3 nM; in the experiment with SK-MEL-3 cells, 4 nM; at human full length PDE3A it was 35 nM; on human full length PDE3B, 89 nM.

For `NC1CCC(Nc2ccc(C3=NNC(=O)OC3)cc2C(F)(F)F)CC1` (mixture of isomers) [Example 320, 5-[4-{[4-aminocyclohexyl]amino}-3-(trifluoromethyl)phenyl]-3,6-dihydro-2H-1,3,4-oxadiazin-2-one (mixture of stereoisomers)], the IC50 with HeLa cells is greater than 100 nM; in the experiment with SK-MEL-3 cells, greater than 100 nM; at human full length PDE3A, 76 nM; against human full length PDE3B, 220 nM.

Take `Cc1cnccc1-c1ccc(C2=NNC(=O)OC2)cc1F` [Example 78, 5-[3-Fluoro-4-(3-methylpyridin-4-yl)phenyl]-3,6-dihydro-2H-1,3,4-oxadiazin-2-one]: the IC50 with HeLa cells is 10 nM; in the experiment on SK-MEL-3 cells it was 21 nM; at human full length PDE3A, 29 nM; at human full length PDE3B, 48 nM.

Turning to `O=C1NN=C(c2ccc(NCC(O)C(F)(F)F)c(C(F)(F)F)c2)CO1` (racemic) [Example 204, (rac)-5-[4-{[3,3,3-trifluoro-2-hydroxypropyl]amino}-3-(trifluoromethyl)phenyl]-3,6-dihydro-2H-1,3,4-oxadiazin-2-one], the concentration for half-maximal inhibition (IC50) in the experiment on HeLa cells is 1 nM; in the experiment with SK-MEL-3 cells, 2 nM; against human full length PDE3A, 80 nM; at human full length PDE3B it was 110 nM.

On to `CC(C)CNc1ccc(C2=NNC(=O)OC2)cc1C(F)(F)F` [Example 221, 5-{4-[(2-Methylpropyl)amino]-3-(trifluoromethyl)phenyl}-3,6-dihydro-2H-1,3,4-oxadiazin-2-one], for which the half-inhibitory concentration (IC50) was found to be 1 nM with HeLa cells, 2 nM in the experiment with SK-MEL-3 cells, 28 nM against human full length PDE3A and 56 nM on human full length PDE3B.

As for `Cc1cccc(-c2ccc(C3=NNC(=O)OC3)cc2F)c1` [Example 87, 5-(2-Fluoro-3′-methylbiphenyl-4-yl)-3,6-dihydro-2H-1,3,4-oxadiazin-2-one], the IC50 was found to be 10 nM with HeLa cells, 32 nM in the experiment with SK-MEL-3 cells, 81 nM at human full length PDE3A and 230 nM on human full length PDE3B.

Regarding `Nc1cc(-c2ccc(C3=NNC(=O)OC3)cc2C(F)(F)F)c(F)cc1F` [Example 38, 5-[5′-Amino-2′,4′-difluoro-2-(trifluoromethyl)biphenyl-4-yl]-3,6-dihydro-2H-1,3,4-oxadiazin-2-one], the IC50 with HeLa cells was 83 nM; in the experiment with SK-MEL-3 cells it was greater than 100 nM; against human full length PDE3A, 210 nM; against human full length PDE3B, 260 nM.

Take `C[C@@H]1OC(=O)NN=C1c1ccc(-c2cccc(O)c2)c(C(F)(F)F)c1` [Example 175, (6S)-5-[3′-Hydroxy-2-(trifluoromethyl)[1,1′-biphenyl]-4-yl]-6-methyl-3,6-dihydro-2H-1,3,4-oxadiazin-2-one]: the IC50 turned out to be 6 nM in the experiment with HeLa cells, 3 nM with SK-MEL-3 cells, 26 nM at human full length PDE3A and 24 nM against human full length PDE3B.

With `Cc1ccncc1-c1ccc(C2=NNC(=O)O[C@H]2C)cc1C(F)(F)F` [Example 182, (6S)-6-Methyl-5-[4-(4-methylpyridin-3-yl)-3-(trifluoromethyl)phenyl]-3,6-dihydro-2H-1,3,4-oxadiazin-2-one], the 50% inhibitory concentration (IC50) with HeLa cells turned out to be 39 nM; in the experiment with SK-MEL-3 cells, 54 nM; on human full length PDE3A, 220 nM; on human full length PDE3B it was 260 nM.

Take `Cc1cc(C#N)ccc1-c1ccc(C2=NNC(=O)OC2)cc1F` [Example 163, 2′-Fluoro-2-methyl-4′-(2-oxo-3,6-dihydro-2H-1,3,4-oxadiazin-5-yl)[1,1′-biphenyl]-4-carbonitrile]: the IC50 stood at 8 nM with HeLa cells, 14 nM in the experiment with SK-MEL-3 cells, 35 nM at human full length PDE3A and 51 nM against human full length PDE3B.

As to `Cc1cc(-c2ccc(C3=NNC(=O)OC3)cc2F)ccc1F` [Example 86, 5-(2,4′-Difluoro-3′-methylbiphenyl-4-yl)-3,6-dihydro-2H-1,3,4-oxadiazin-2-one], the half-maximal inhibitory concentration (IC50) was 6 nM in the experiment with HeLa cells, 25 nM in the experiment on SK-MEL-3 cells, 84 nM at human full length PDE3A and 210 nM at human full length PDE3B.

`O=C1NN=C(c2cc(F)c(N3CCOCC3)c(C(F)(F)F)c2)CO1` [Example 264, 5-[3-Fluoro-4-(morpholin-4-yl)-5-(trifluoromethyl)phenyl]-3,6-dihydro-2H-1,3,4-oxadiazin-2-one]: the IC50 worked out at 2 nM in the experiment on HeLa cells, 2 nM in the experiment with SK-MEL-3 cells, 75 nM against human full length PDE3A and 112 nM against human full length PDE3B.
